# In patent US9068194B2, “Increasing plant growth by modulating omega-amidase expression in plants” (Los Alamos National Security, LLC, priority 2010, dated 2015):
# Several values for one entry are separate records, joined by “and”; a condition that tells them apart may be missing. Identical values can stand only once.
# Experiments:
# Ω-amidase in corn roots = experiment: Treatment of sweet corn roots with ω-amidase inhibitor DON (hydroponic); format: in vivo
# Method: (§1) HPLC Assay for 2-oxoglutaramate: HPLC was used to assay 2-oxoglutaramate, following a modification of Calderon et al., 1985, J Bacteriol 161(2): 807-809. Briefly, 2-oxoglutaramate was extracted from plant tissue in distilled de-ionized water acidified to less than pH 2.0 with HCl using a weight to volume ratio of 2:1. 2-Oxoglutaramate was detected and quantified by HPLC, using an ION-300 7.8 mm ID×30 cm L column, with a mobile phase in 0.01NH2SO4, a flow rate of approximately 0.2 ml/min, at 40° C. Injection volume is approximately 20 and retention time between about 38 and 39 minutes. Detection is achieved with 210 nm UV light. Authentic 2-oxoglutaramate was used to calibrate the assay.
# (§2) Ω-amidase activity was determined using the 96-well plate assay as described in Krasnikov et al., 2009, Analytical Biochemistry 391: 144-150.
# (§3) Columbia nutrient solution was utilized (Knight and Weissman, 1982, Plant Physiol. 70: 1683).
# (§4) Plants were grown hydroponically at 24° C. using a 16 hour/day light and 8 hour/day dark photoperiod. Seeds were first germinated and seedlings were grown for 9 days, at which time the individual seedlings were suspended with their roots in the nutrient solution (600 ml of nutrient, pH 6.3) in an 800 ml beaker covered with aluminum foil, with a slit for the seedlings, to prevent algal growth. The beakers were aerated with air provided by a small pump and delivered into the solution through a glass Pasteur pipette. For the treatments, DON was added to the nutrient solution to a final concentration of 1 microgram per ml. Thus DON was supplied continuously to the treated seedlings. The controls were grown in the same nutrient solution without DON. The solutions were refreshed every third day. Plants were sacrificed and analyzed for fresh weight, ω-amidase activity, and 2-oxoglutaramate concentrations in leaf and root tissue 14 days after initiation of treatment.
# Ω-amidase in bean roots = experiment: Treatment of pole bean roots with ω-amidase inhibitor DON (hydroponic); format: in vivo
# Method: as §1, §2, §3, §4
# Ω-amidase in corn leaves = experiment: Treatment of corn leaves with ω-amidase inhibitor DON (foliar spray); format: in vivo
# Method: as §1, §2, §3
# Plants were grown in sand at 24° C. using a 16 hour/day light and 8 hour/day dark photoperiod. Seeds were germinated in the sand and allowed to grow for 9-14 days after seedling emergence. Seedlings (1 per 3 inch pot) were provided nutrients daily. The top of each pot was covered with Saran plastic film, with a slit cut to allow the seedlings room to emerge, in order to prevent treatment solution from reaching the soil. Leaves were treated by spraying DON treatment/nutrient solution twice daily. The DON treatment/nutrient solution contained 1 microgram/ml DON, 50 micoliters/liter SILWET L77 (a surfactant) and 0.02 vol/vol % glycerol (a humectant) at pH 6.3, dissolved in nutrient solution. Control plants were sprayed daily with the same solution without DON. An airbrush was used to apply the solutions until drip. Plants were sacrificed and analyzed for fresh weight, ω-amidase activity, and 2-oxoglutaramate concentrations in leaf and root tissue 14 days after initiation of treatment.
# [1] = test system: GPT (glutamine phenylpyruvate transaminase), substrate glutamine; experiment: Kinetic analysis of GPT substitution mutants expressed in E. coli; format: biochemical, Arabidopsis; conditions: enzyme expressed in E. coli
# Method: Maximal velocity was determined using the formula: Vmax=Kcat[E]tot. The apparent unimolecular rate constant kcat is also called turnover number and denotes the maximum number of enzymatic reactions catalyzed per second.
# This mutant GPT enzyme may be expected to produce more product, the 2-oxoglutaramate, per unit time than the wild type GPT when the concentration of the substrate glutamine is present in millimolar or greater quantities, thus assuring that the […] is saturating.
# [2] = root treatment 1 microgram per ml DON, 14 days
# [3] = bean, root treatment 1 microgram per ml DON, 14 days
# [4] = leaf treatment with DON, average of treated plants
# [5] = leaves sprayed twice daily with 1 microgram/ml DON, 14 days (Table 17)
molecule,measurement,setting,value
"[N-]=[N+]=CC(=O)CC[C@H](N)C(=O)O [DON, 6-diazo-5-oxo-nor-leucine]",ω-amidase activity,Ω-amidase in corn roots; continuous DON treatment of roots,None of the DON treated plants had detectable levels of ω-amidase activity
same,growth,"Ω-amidase in corn roots; continuous DON treatment of roots, versus untreated control plants",severely stunted growth
same,2-OGM ROOT,Ω-amidase in corn roots; [2],2288 nmoles/gfwt
same,LEAF/ROOT RATIO (2-OGM),Ω-amidase in corn roots; [2],0.13
same,2-OGM LEAF,"Ω-amidase in corn roots; root treatment 1 microgram per ml DON, 14 days, 2-OGM = 2-oxoglutaramate",300 nmoles/gfwt
same,increase of 2-oxoglutaramate in roots,"Ω-amidase in corn roots; root treatment with DON, versus control",over 30 fold
same,% INCREASE IN FWT,"Ω-amidase in corn roots; roots in nutrient solution with 1 microgram per ml DON continuously, 14 days after initiation of treatment",174%
same,ω-amidase activity,"Ω-amidase in bean roots; bean, continuous DON treatment of roots",None of the DON treated plants had detectable levels of ω-amidase activity
same,growth,"Ω-amidase in bean roots; bean, continuous DON treatment of roots, versus untreated control plants",severely stunted growth
same,2-OGM LEAF,Ω-amidase in bean roots; [3],279 nmoles/gfwt
same,2-OGM ROOT,Ω-amidase in bean roots; [3],1586 nmoles/gfwt
same,LEAF/ROOT RATIO (2-OGM),Ω-amidase in bean roots; [3],0.18
same,% INCREASE IN FWT,"Ω-amidase in bean roots; bean, roots in nutrient solution with 1 microgram per ml DON continuously, 14 days after initiation of treatment",198%
same,increase of 2-oxoglutaramate in roots,"Ω-amidase in bean roots; beans, root treatment with DON, versus control",15 fold
same,corn plant fresh weights versus untreated,Ω-amidase in corn leaves; leaf treatment with DON,near doubling
same,increase of 2-oxoglutaramate in leaves over untreated plants,Ω-amidase in corn leaves; leaf treatment with DON,more than 7 fold
same,leaf ω-amidase activity relative to untreated plants,Ω-amidase in corn leaves; leaf treatment with DON,about 50%
same,Amidase activity Leaf,Ω-amidase in corn leaves; [4],0.135 μmole/gfw/hr
same,"Whole Plant Fresh Wt, Average",Ω-amidase in corn leaves; [4],21.4 g
same,2-Oxoglutaramate Concentration,"Ω-amidase in corn leaves; leaf treatment with DON, average of treated plants (Table 18)",838.8 nmoles/gfwt
same,Whole Plant Fresh Wt,"Ω-amidase in corn leaves; leaf treatment with DON, individual treated plants",20.9 g and 19.2 g and 24.3 g
same,2-OGM LEAF,Ω-amidase in corn leaves; [5],753.9 nmoles/gfwt
same,2-OGM ROOT,Ω-amidase in corn leaves; [5],126.8 nmoles/gfwt
same,LEAF/ROOT RATIO (2-OGM),Ω-amidase in corn leaves; [5],5.0
"GPT/F:V mutant: mutant GPT from the natural Arabidopsis GPT, substituting V (valine) for the F (phenylalanine) residue in NLGQGFP; expressed in E. coli (protein, synthetic Arabidopsis glutamine phenylpyruvate transaminase (GPT) mutant GPT/FV with V substitution in conserved region at position 88, mutant GPT from the natural Arabidopsis GPT, substituting V (valine) for the F (phenylalanine) residue in NLGQGFP; expressed in E. coli) MYLDINGVMIKQFSFKASLLPFSSNFRQSSAKIHRPIGATMTTVSTQNESTQKPVQVAKRLEKFKTTIFTQMSILAVKHGAINLGQGVPNFDGPDFVKEAAIQAIKDGKNQYARGYGIPQLNSAIAARFREDTGLVVDPEKEVTVTSGCTEAIAAAMLGLINPGDEVILFAPFYDSYEATLSMAGAKVKGITLRPPDFSIPLEELKAAVTNKTRAILMNTPHNPTGKMFTREELETIASLCIENDVLVFSDEVYDKLAFEMDHISIASLPGMYERTVTMNSLGKTFSLTGWKIGWAIAPPHLTWGVRQAHSYLTFATSTPAQWAAVAALKAPESYFKELKRDYNVKKETLVKGLKEVGFTVFPSSGTYFVVADHTPFGMENDVAFCEYLIEEVGVVAIPTSVFYLNPEEGKNLVRFAFCKDEETLRGAIERMKQKLKRKV",Km,[1],750 µM
same,increase of Vmax over the wild type,[1],20%
same,Vmax,[1]; same amount of protein,6.04
